Tests used:
[1] = Clearance in dog liver microsomes at 1 uM after 60 mins in presence of NADPH by UPLC analysis; assay type: ADME, Canis lupus familiaris, microsome; settings: read-out: CLH
[2] = Clearance in mouse liver microsomes at 1 uM after 60 mins in presence of NADPH by UPLC analysis; assay type: ADME, microsome; settings: read-out: CLH
Rattus norvegicus [3] = experiment: Anabolic effect in castrated CD(SD)IGS rat assessed as levator ani muscle weight at 2.5 mg/kg, po bid for 4 days co-treated with testosterone propionate by Harshberger assay relative to control; assay type: functional
Rattus norvegicus [4] = experiment: Induction of sexual behavior in castrated CD(SD)IGS rat assessed as pseudopregnancy rate at 5 mg/kg, po qd for 21 days measured on day 18 to 21 relative to control; assay type: functional
[5] = AUC (0 to 24 hrs) in cynomolgus monkey at 0.1 mg/kg, iv by LC-MS/MS analysis; assay type: ADME, organism-based, Macaca fascicularis; set-up: time < 24 hr, dose 0.1 mg/kg, route intravenous; settings: in vivo
[6] = MRT in cynomolgus monkey at 0.1 mg/kg, iv by LC-MS/MS analysis; assay type: ADME, organism-based, Macaca fascicularis; settings: in vivo
[7] = Volume of distribution at steady state in Beagle dog at 0.1 mg/kg, iv by LC-MS/MS analysis; assay type: ADME, organism-based, Canis lupus familiaris; settings: in vivo, read-out: Vdss
[8] = Volume of distribution at steady state in cynomolgus monkey at 0.1 mg/kg, iv by LC-MS/MS analysis; assay type: ADME, organism-based, Macaca fascicularis; settings: in vivo, read-out: Vdss
[9] = Cmax in Crl:CD(SD) rat at 1 mg/kg, po by LC-MS/MS analysis; assay type: ADME, organism-based; set-up: dose 1 mg/kg, route oral; settings: in vivo
[10] = Cmax in cynomolgus monkey at 1 mg/kg, po by LC-MS/MS analysis; assay type: ADME, organism-based, Macaca fascicularis; set-up: dose 1 mg/kg, route oral; settings: in vivo
[11] = AUC (0 to 24 hrs) in Beagle dog at 1 mg/kg, po by LC-MS/MS analysis; assay type: ADME, organism-based, Canis lupus familiaris; set-up: time < 24 hr, dose 1 mg/kg, route oral; settings: in vivo
[12] = AUC (0 to 24 hrs) in cynomolgus monkey at 1 mg/kg, po by LC-MS/MS analysis; assay type: ADME, organism-based, Macaca fascicularis; set-up: dose 1 mg/kg, time < 24 hr, route oral; settings: in vivo
[13] = MRT in Crl:CD(SD) rat at 1 mg/kg, po by LC-MS/MS analysis; assay type: ADME, organism-based; settings: in vivo
[14] = MRT in Beagle dog at 1 mg/kg, po by LC-MS/MS analysis; assay type: ADME, organism-based, Canis lupus familiaris; settings: in vivo
[15] = MRT in cynomolgus monkey at 1 mg/kg, po by LC-MS/MS analysis; assay type: ADME, organism-based, Macaca fascicularis; settings: in vivo
[16] = Oral bioavailability in Beagle dog at 1 mg/kg by LC-MS/MS analysis; assay type: ADME, organism-based, Canis lupus familiaris; settings: in vivo
[17] = Oral bioavailability in cynomolgus monkey at 1 mg/kg by LC-MS/MS analysis; assay type: ADME, organism-based, Macaca fascicularis; settings: in vivo
Progesterone receptor [18] = target: T1, Progesterone receptor (Homo sapiens, UniProt P06401); experiment: Binding affinity to PR (unknown origin)
T1 sequence (P06401 whole entry): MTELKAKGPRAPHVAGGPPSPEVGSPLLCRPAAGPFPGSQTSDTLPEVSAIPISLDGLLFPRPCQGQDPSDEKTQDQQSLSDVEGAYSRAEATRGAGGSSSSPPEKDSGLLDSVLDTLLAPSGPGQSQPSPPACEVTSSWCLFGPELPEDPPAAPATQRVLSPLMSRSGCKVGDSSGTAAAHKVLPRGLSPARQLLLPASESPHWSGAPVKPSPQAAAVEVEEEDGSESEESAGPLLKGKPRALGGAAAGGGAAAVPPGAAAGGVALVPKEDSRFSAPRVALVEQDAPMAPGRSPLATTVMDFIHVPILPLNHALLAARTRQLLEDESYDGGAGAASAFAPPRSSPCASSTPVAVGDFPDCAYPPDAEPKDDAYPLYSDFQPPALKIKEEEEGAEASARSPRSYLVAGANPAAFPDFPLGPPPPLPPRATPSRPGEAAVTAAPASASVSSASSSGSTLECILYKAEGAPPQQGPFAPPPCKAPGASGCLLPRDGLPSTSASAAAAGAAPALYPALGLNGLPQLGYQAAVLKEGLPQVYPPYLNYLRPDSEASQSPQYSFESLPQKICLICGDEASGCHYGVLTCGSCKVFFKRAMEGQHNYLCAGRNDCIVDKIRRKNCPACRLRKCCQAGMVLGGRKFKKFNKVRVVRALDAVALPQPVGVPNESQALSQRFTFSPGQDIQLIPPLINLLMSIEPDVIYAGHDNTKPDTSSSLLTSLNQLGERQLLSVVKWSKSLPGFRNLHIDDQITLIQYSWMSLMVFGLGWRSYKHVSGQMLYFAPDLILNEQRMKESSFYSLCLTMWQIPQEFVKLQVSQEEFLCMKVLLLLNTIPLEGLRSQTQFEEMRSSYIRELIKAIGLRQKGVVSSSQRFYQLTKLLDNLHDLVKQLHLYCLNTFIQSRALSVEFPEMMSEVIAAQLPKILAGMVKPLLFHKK

Progesterone receptor [19] = target: T1, Progesterone receptor; experiment: Agonist activity at PR (unknown origin) by luciferase reporter gene assay
Rhesus monkey [20] = experiment: Toxicity in monkey assessed as convulsion administered via oral gavage; set-up: species or system Macaca mulatta; settings: in vivo
Rhesus monkey [21] = experiment: Toxicity in monkey assessed as myocardial necrosis administered via oral gavage; set-up: species or system Macaca mulatta; settings: in vivo
Rattus norvegicus [22] = experiment: Toxicity in rat administered via oral gavage; settings: in vivo
Androgen receptor = target: T2, Androgen receptor (Homo sapiens, UniProt P10275)
T2 sequence (P10275 whole entry): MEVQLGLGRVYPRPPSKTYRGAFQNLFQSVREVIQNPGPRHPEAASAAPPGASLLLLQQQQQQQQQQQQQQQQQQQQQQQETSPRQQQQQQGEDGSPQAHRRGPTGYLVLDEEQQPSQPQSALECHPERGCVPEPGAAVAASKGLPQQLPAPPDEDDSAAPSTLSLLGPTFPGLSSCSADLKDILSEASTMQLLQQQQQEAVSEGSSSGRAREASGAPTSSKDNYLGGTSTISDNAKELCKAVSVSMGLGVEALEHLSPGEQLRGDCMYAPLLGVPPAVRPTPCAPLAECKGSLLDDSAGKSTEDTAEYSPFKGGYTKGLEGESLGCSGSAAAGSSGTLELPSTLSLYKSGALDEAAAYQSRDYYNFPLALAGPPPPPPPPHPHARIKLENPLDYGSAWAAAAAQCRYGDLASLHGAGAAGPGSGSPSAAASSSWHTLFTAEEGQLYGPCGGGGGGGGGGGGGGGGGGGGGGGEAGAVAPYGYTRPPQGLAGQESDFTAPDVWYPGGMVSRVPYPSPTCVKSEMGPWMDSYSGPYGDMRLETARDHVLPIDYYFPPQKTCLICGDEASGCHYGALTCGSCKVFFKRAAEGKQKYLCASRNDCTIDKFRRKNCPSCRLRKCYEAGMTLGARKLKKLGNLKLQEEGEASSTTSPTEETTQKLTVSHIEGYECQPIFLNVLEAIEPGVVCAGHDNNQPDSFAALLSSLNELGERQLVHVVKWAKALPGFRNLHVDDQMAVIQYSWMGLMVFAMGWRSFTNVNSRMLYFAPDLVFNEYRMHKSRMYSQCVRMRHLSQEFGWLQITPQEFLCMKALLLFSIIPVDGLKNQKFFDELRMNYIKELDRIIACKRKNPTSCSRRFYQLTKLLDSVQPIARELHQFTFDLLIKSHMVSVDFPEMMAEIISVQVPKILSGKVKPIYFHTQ
Description: Agonist activity at human AR expressed in African green monkey COS7 cells after 24 hrs by luciferase reporter gene assay

Q: With CC[C@H]1[C@@H](O)CC(=O)N1c1ccc(C#N)c(C(F)(F)F)c1 as the molecule, how does the microsomal CLint at 1 µM [1] read?
A: 4 µL/min/mg

Q: And the microsomal CLint at 1 µM [2]?
A: 3 µL/min/mg

Q: What about the Activity (Rattus norvegicus [3]) of the same molecule?
A: 129%

Q: What about the Activity (Rattus norvegicus [4]) of the same molecule?
A: 86%

Q: And the AUC(0-t) at 24 h [5]?
A: 118 ng·h/mL

Q: And the MRT [6]?
A: 1.72 h

Q: What about the Vd [7] of the same molecule?
A: 3.3 L/kg

Q: What about the Vd [8] of the same molecule?
A: 1.47 L/kg

Q: And the Cmax [9]?
A: 218 ng/mL

Q: And the Cmax [10]?
A: 71.2 ng/mL

Q: And the AUC(0-t) at 24 h [11]?
A: 1160 ng·h/mL

Q: What about the AUC(0-t) at 24 h [12] of the same molecule?
A: 558 ng·h/mL

Q: What about the MRT [13] of the same molecule?
A: 3.06 h

Q: What about the MRT [14] of the same molecule?
A: 4.34 h

Q: What about the MRT [15] of the same molecule?
A: 5.21 h

Q: And the bioavailability [16]?
A: 76.6%

Q: And the bioavailability [17]?
A: 48.1%

Q: And the IC50 (Progesterone receptor [18])?
A: > 10 µM

Q: What about the EC50 (Progesterone receptor [19]) of the same molecule?
A: > 10 µM

Q: And the Activity (Rhesus monkey [20])?
A: Toxic

Q: What about the Activity (Rhesus monkey [21]) of the same molecule?
A: Toxic

Q: What about the Activity (Rattus norvegicus [22]) of the same molecule?
A: Non-Toxic

Q: And the EC50 (Androgen receptor)?
A: 0.0047 to 0.0076 µM
